Test results reported in patent US11447482B1, “Imidazopyridine and oxazolopyridine derivatives and analogs thereof, methods of preparation thereof, methods of HIF-2A pathway inhibition, and induction of ferroptosis” (KUDA Therapeutics, Inc., priority 2019, dated 2022).
Where “and” joins values, the source holds several entries; their conditions need not be identical. Identical values can stand only once. Like-named read-outs stand apart in the source and are kept apart here.

Assays:
[1] = biological target: HIF-2α transcriptional activity; test: Hypoxia-responsive element-driven luciferase (HRE-Luc) assay; format: cell-based, human; conditions: 786-0 CCRCC cells stably expressing HRE-Luc, 24 hours treatment
Method: (§1) Screens for inhibitory activity of compounds described herein were performed using 786-0 CCRCC cells that stably express HRE-Luc: 5 copies of the hypoxia-responsive element (HRE) fused to the pGL3 luciferase reporter (Promega Corp, Madison Wis.). 786-0 cells are pVHL deficient and thus constitutively express HIF-2α independently of cellular oxygen tension (Maxwell, Wiesener et al. 1999). Since 786-0 cells lack HIF-1α, HRE-driven luciferase activity is primarily HIF-2α driven, and has been previously validated (Koh, Lemos et al. 2011). Cells were maintained at log phase growth in Dulbecco's […] (DMEM) with 10% FBS in a humidified incubator at 37° C. with 5% CO2. For screening assays, cells were seeded at a density of 4,000 cells in 50 μl of complete media/well in quadruplicate wells/point in a 96-well plate. 24 hours later, 50 μl of a 2× concentration of test compound was added to each well. Compounds were diluted from a 5-10 mM stock in DMSO and final concentrations of DMSO in each well in controls and treated wells were kept constant at ≤0.6% DMSO. After 24 hours' treatment, luciferase activity was measured using the Steady-Glo Luciferase assay system (Promega Corp) according to the manufacturer's protocol. Cell viability was measured in quadruplicate parallel wells using resazurin as recommended by the manufacturer (R&D systems, Minneapolis, Minn.). Data for luciferase and resazurin were normalized to DMSO treated controls (defining 100%) and wells containing assay reagent but no cells (defining 0%), and graphed using the log inhibitor versus normalized response option in Prism7 Graphpad software. Representative data determined using Steady-Glo luciferase and resazurin are shown in FIGS. 1A and 1B respectively, with error bars showing standard error of the mean (SEM).

786-0 CCRCC cells [2] = test: Resazurin cell viability assay, with or without deferoxamine; format: cell-based, human; conditions: 24 hours; for IC50: 786-0 CCRCC cells, resazurin; for ratio of resazurin IC50 to HRE-Luc IC50: 786-0 HRE-Luc cells, data of FIG. 1
Method: as §1
In view of the increased cellular iron concentrations induced by the compounds described herein, the involvement of iron in mediating cell death was determined. Cell viability assays were performed as described in Example 2 using resazurin as a cell viability readout, and performed in the absence or presence of 100 μM of the iron chelator, deferoxamine (D9533, MilliporeSigma, St Louis, Mo.). […] The data support an iron-dependent mechanism of cell death, or feroptosis.

786-0 CCRCC cells [3] = test: ICP-MS of cellular iron, zinc and copper; format: cell-based, human; conditions: 786-0 cells, 24 hours, 1.5 μM KD002 or KD021, 2.5 μM KD025HCl, versus DMSO
Method: These studies were performed to determine the content of iron and other transition metals in cells after exposure the compounds described herein. 786-0 cells were seeded at 1.5 million cells/flask in T75 cm^2 flasks in DMEM+10% FBS, and allowed to adhere overnight. Cells were then treated with indicated concentrations of compounds in DMSO or DMSO alone (vehicle) for a further 24 hours, after which cells were detached by trypsinization, counted, washed twice in PBS and pelleted. Experiments were performed using three replicate T75 cm^2 flasks per condition. A 5:1 mixture of nitric acid (OPTIMA Grade, 70%, Fisher Scientific) and ultrapure hydrogen peroxide (ULTREX II, 30%, Fisher Scientific) was added to cell pellets. This mixture was allowed to digest overnight, heated until dry, and resuspended in 2% nitric acid for analysis using an Agilent 7900 ICP-MS (Agilent Technologies, Santa Clara, Calif.). Calibration standard solutions for determination of Fe were prepared from Agilent multi-element calibration standard-2A. An Agilent Environmental Calibration Standard was used as an independent control. PBS-only control digestions were used to measure background. Metal readings were normalized to cell number. Data obtained from these studies for three replicate readings (with SEM) are shown in FIG. 4, which show an increase in cellular iron (Fe) content after treatment with indicated compounds.

[4] = test system: CMV-driven luciferase in 786-0 cells; test: CMV-Luciferase counter-screen (constitutive luciferase); format: cell-based, human; conditions: 786-0 CMV versus 786-0 HRE cells, data of FIG. 2
Method: Since it is possible that non-specific inhibitors of luciferase activity and/or translation may produce false-positives in our HRE-luciferase screens, counter-screens were performed using 786-0 cells that stably express a constitutively expressed luciferase construct. 786-0 cells stably expressing CMV-driven luciferase were generated using the pGL4.50 (luc2/CMV/Hygro) vector (Promega Corp) according to the manufacturers' protocol. 786-0 HRE and 786-0 CMV were seeded in 96-well plates and were screened according to the HRE-Luc assay protocol described in Example 2. Luciferase activity following compound treatment was determined using Steady Glo luciferase. Representative data are shown in FIG. 2, wherein A, B and C refer to treatments with KD02, KD007 and KD021 respectively. Filled circles indicate results from 786-0 HRE cells, whereas empty squares indicate results from 786-0 CMV cells.

recombinant ISCA2 = biological target: T1, recombinant ISCA2 (Homo sapiens, UniProt Q86U28); test: Thermal shift assay (SYPRO Orange); format: binding
T1 construct: His6 (N); made in house
T1 sequence (Q86U28 9-154): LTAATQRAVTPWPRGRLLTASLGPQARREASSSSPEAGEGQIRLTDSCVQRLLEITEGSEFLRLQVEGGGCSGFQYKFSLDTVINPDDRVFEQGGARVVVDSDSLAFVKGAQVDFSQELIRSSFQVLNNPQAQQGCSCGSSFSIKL
Method: Thermal shift assays were performed by monitoring the change in protein melting temperature (Tm) in the absence or presence of test compounds, using the hydrophobic protein binding dye, SYPRO Orange (S6650, Thermo Fisher Scientific, Waltham, Mass.), measured using the LightCycler 480 (Roche Life Sciences, Indianapolis, Ind.) according to the manufacturer's protocol. Recombinant ISCA2 was produced by expressing amino acid residues 9-154 of ISCA2 (ISCA2 lacking its mitochondrial localization sequence) in the pET28 vector containing an N-terminal His6 tag in Rosetta (DE3) competent cells (Novagen, Millipore Sigma). ISCA2 production was induced by treating ISCA2 transformed log phase cells with 0.25 mM IPTG for 4 hours at 18° C. ISCA2 was purified using Ni^2+ affinity purification according to standard protocols and eluted in 50 mM Tris-Cl pH7.4, 150 mM NaCl, 5 mM DTT. Thermal shift assays were performed in 384-well plates using 1 μl of a 10× concentration of SYPRO Orange, 8 μl of ISCA2 (4 μg protein) and 1 μl of 1-2 mM stock of test compound per well. The LightCycler was used according to the following setup: LightCycler 480 Instrument Temperature Setup: First target of 20° C., with a Hold of 15 seconds; second target of 95° C., with Acquisition Mode of Continuous, and 10 acquisitions per degree C.; and third target of 20° C., with a Hold of 15 seconds. Tms were determined using Roche Protein Melting Analysis Software. Representative data are shown in FIGS. 7 and 8 using KD001 at 200 μM final concentration and KD025 at 100 μM final concentration respectively. Part A in these figures show the changes in fluorescence with increasing temperature in control (grey traces), or treated (black traces) wells. Part B show the ratio of changes in fluorescence (dF) with changes in temperature (dT), given by dF/dT, the peak of which indicates the melting temperature of ISCA2 under these assay conditions. In these examples, for KD001 in FIG. 7, the average Tm readings for control wells was 53.21±0.36° C. (replicate readings were 53.92, 52.83, 52.90), whereas Tm readings for KD001-treated wells were 55.63±0.26° C. (replicate readings were 55.10, 55.92, 55.96). Thus, treatment with KD001 results in a change in melting temperature of ISCA2 (dTm) of 2.41±0.44° C., with a Student's t-test p-value of 0.005. For KD025 in FIG. 8, the average Tm readings for control wells was 55.02±0.2° C. (replicate readings were 55.42, 54.83, 54.81), whereas Tm readings for KD025-treated wells were 56.3±0.02° C. (replicate readings were 56.33, 56.3, 56.27). Thus, treatment with KD025 results in a change in melting temperature of ISCA2 (dTm) of […], with a Student's t-test p-value of 0.003.

HIF-2α = test: Western blot of treated 786-0 cells: HIF-2α; format: cell-based, human; conditions: 786-0 CCRCC cells, 24 hours
Method: (§2) Western blots were performed to determine the effects of the compounds on levels of HIF-2α and other relevant proteins. 786-0 (pVHL deficient clear cell kidney cancer cells) were purchased from ATCC were plated at 1×10E5 cells/well in 2 ml DMEM with 10% FBS/well in 6-well tissue culture plates. Cells were allowed to adhere overnight in a humidified incubator at 37° C. with 5% CO2, after which the appropriate concentrations of compounds in DMSO were added. DMSO concentrations were kept constant in all wells. After 24 hour's exposure to the compounds, cells were lysed and subjected to western blotting according to standard protocols (Polek, Talpaz et al. 2003). Antibodies for HIF-2α and Glyceraldehyde 3-Phosphate Dehydrogenase (GAPDH) were purchased from Cell Signaling Technology (Danvers, Mass.), whereas antibodies to iron responsive element binding protein 2 (IRP2) and Glutathione Peroxidase 4 (GPX4) were from Santa Cruz Biotechnology (Dallas, Tex.) and R&D Systems, Inc (Minneapolis, Minn.). Representative data in FIG. 3 show a dose-dependent effect of compounds in decreasing HIF-2α. Compounds also impact cellular iron sensing given by increased IRP2, which taken together indicate that cells sense decreased amounts of available iron. Representative data shown in FIG. 5 Part C show a dose dependent effect of the compounds on GPX4, which may indicate decreased resistance to ferroptosis.

IRP2 = test: Western blot of treated 786-0 cells: IRP2; format: cell-based, human; conditions: 786-0 CCRCC cells, 24 hours
Method: as §2

Row | Compound | ratio of resazurin IC50 to HRE-Luc IC50 (786-0 CCRCC cells [2]) | IC50 ([1]; Homo sapiens) | cellular copper (Cu) content (ICP-MS) (786-0 CCRCC cells [3]) | cellular iron (Fe) content (ICP-MS) (786-0 CCRCC cells [3]) | cellular zinc (Zn) content (ICP-MS) (786-0 CCRCC cells [3]) | ratio of CMV-Luc IC50 to HRE-Luc IC50 [4] | HIF-2α protein relative to GAPDH (western blot) (HIF-2α) | IRP2 protein relative to GAPDH (western blot) (IRP2) | further results
1 | COc1ccc(-c2nnc(Nc3nc4c(OC)nccc4[nH]3)o2)cc1 [KD021, N-(4-methoxy-1H-imidazo[4,5-c]75yridine-2-yl)-5-(4-methoxyphenyl)-1,3,4-oxadiazol-2-amine] | 2.75 | – | increases | increases | increases | – | – | – | IC50 [1]: 1.4 µM; IC50 (786-0 CCRCC cells [2]; with 100 μM deferoxamine (DFO), read-out: cell viability IC50 in the presence of DFO): 83.6 µM; IC50 (786-0 CCRCC cells [2]; without DFO, read-out: cell viability IC50): 11.4 µM
2 | Fc1ccc(-c2nnc(Nc3nc4ncccc4o3)o2)cc1 [KD007, N-(5-(4-Fluorophenyl)-1,3,4-oxadiazol-2-yl)oxazolo[4,5-b]pyridin-2-amine] | 3.2 | 3.16 µM | – | – | – | 4.75 and 2.6 | – | – | –
3 | COc1ccc(-c2nnc(Nc3nc4c(OC)nccc4[nH]3)o2)cc1OC [KD025, N-(4-Methoxy-1H-imidazo[4,5-c]pyridin-2-yl)-5-(3,4-dimethoxyphenyl)-1,3,4-oxadiazol-2-amine] | – | 1.13 µM | – | – | – | – | – | – | Tm of ISCA2 in treated wells, replicate readings (recombinant ISCA2; 100 μM compound): 56.33 °C and 56.3 °C and 56.27 °C; change in melting temperature of ISCA2 (dTm) (recombinant ISCA2; 100 μM compound, p-value 0.003): 1.21±0.20 °C; ΔTm at 100 µM (recombinant ISCA2; 100 μM compound, p-value 0.003, read-out: change in melting temperature of ISCA2 (dTm)): 1.21 ± 0.2 °C; Tm of ISCA2 in treated wells (average) (recombinant ISCA2; 100 μM compound, control wells 55.02±0.2): 56.3±0.02 °C

More lines, in order of falling IC50 ([1]; Homo sapiens), values ahead:

Row | ratio of resazurin IC50 to HRE-Luc IC50 (786-0 CCRCC cells [2]) | IC50 ([1]; Homo sapiens) | Compound | cellular copper (Cu) content (ICP-MS) (786-0 CCRCC cells [3]) | cellular iron (Fe) content (ICP-MS) (786-0 CCRCC cells [3]) | cellular zinc (Zn) content (ICP-MS) (786-0 CCRCC cells [3]) | ratio of CMV-Luc IC50 to HRE-Luc IC50 [4] | HIF-2α protein relative to GAPDH (western blot) (HIF-2α) | IRP2 protein relative to GAPDH (western blot) (IRP2) | further results
4 | – | 3.21 µM | COc1cccc2sc(Nc3nnc(-c4ccc(F)cc4)o3)nc12 [KD001, 5-(4-fluorophenyl)-N-(4-methoxybenzo[d]thiazol-2-yl)-1,3,4-oxadiazol-2-amine] | – | – | – | – | decreases | increases | Tm of ISCA2 in treated wells, replicate readings (recombinant ISCA2; 200 μM compound): 55.10 °C and 55.92 °C and 55.96 °C; change in melting temperature of ISCA2 (dTm) (recombinant ISCA2; 200 μM compound, p-value 0.005): 2.41±0.44 °C; ΔTm at 200 µM (recombinant ISCA2; 200 μM compound, p-value 0.005, read-out: change in melting temperature of ISCA2 (dTm)): 2.41 ± 0.44 °C; Tm of ISCA2 in treated wells (average) (recombinant ISCA2; 200 μM compound, control wells 53.21±0.36): 55.63±0.26 °C
5 | 39.05 | 1.56 µM | COc1nccc2[nH]c(Nc3nnc(-c4ccc(F)cc4)o3)nc12 [KD002, 5-(4-Fluorophenyl)-N-(4-methoxy-1H-imidazo[4,5-c]pyridin-2-yl)-1,3,4-oxadiazol-2-amine] | increases | increases | increases | 7.9 | decreases | increases | –
